Results from ChEMBL document CHEMBL4602606, “Differentiating the Pharmacodynamics and Toxicology of Macrolide and Ketolide Antibiotics” (J Med Chem, 2020).
In brackets after ≈: the same amount, converted by molar mass.

Legend:
[1] = Protein binding in plasma (unknown origin); type: ADME, cell-free; details: read-out: PPB
[2] = system: Haemophilus influenzae; experiment: Antibacterial activity against Haemophilus influenzae; type: functional
[3] = Maximum serum concentration in human at 500 mg, po; type: ADME; design: dose 500 mg, route oral
[4] = system: Streptococcus pneumoniae; experiment: Antibacterial activity against erythromycin-resistant Streptococcus pneumoniae; type: functional
[5] = system: Streptococcus pneumoniae; experiment: Antibacterial activity against erythromycin-susceptible Streptococcus pneumoniae; type: functional
[6] = Inhibition of human nAChR expressed in human TE671 cells assessed as reduction in nicotine-induced current response by whole-cell patch-clamp method; type: cell-based; details: TE-671
[7] = target: Neuronal acetylcholine receptor; alpha3/beta4 (Homo sapiens, UniProt P30926+P32297); experiment: Inhibition of human alpha3beta4 nAChR assessed as […] in acetylcholine-induced normalized current at 2 uM (reference value: 78.5 +/- 10 uM); type: protein-complex assay
[8] = Terminal half life in human; type: ADME; details: read-out: beta t1/2
[9] = Maximum serum concentration in human at 500 mg, po measured within 2 hrs; type: ADME, organism-based; design: dose 500 mg, route oral; details: in vivo

Chain of Neuronal acetylcholine receptor; alpha3/beta4 (P30926 whole entry): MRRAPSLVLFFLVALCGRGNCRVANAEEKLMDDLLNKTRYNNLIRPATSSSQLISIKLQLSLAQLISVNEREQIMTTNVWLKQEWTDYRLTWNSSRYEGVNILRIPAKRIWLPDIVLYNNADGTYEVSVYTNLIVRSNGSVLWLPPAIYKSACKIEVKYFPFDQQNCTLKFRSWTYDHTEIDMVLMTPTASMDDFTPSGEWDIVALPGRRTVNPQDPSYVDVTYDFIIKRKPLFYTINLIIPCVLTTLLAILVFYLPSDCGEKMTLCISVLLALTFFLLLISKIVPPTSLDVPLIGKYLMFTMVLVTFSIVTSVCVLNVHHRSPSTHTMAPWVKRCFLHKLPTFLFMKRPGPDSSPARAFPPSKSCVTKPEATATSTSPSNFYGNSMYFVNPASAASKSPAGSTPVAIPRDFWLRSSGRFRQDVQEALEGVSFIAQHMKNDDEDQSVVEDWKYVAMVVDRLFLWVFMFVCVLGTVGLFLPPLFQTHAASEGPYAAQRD
Chain of Neuronal acetylcholine receptor; alpha3/beta4 (P32297 whole entry): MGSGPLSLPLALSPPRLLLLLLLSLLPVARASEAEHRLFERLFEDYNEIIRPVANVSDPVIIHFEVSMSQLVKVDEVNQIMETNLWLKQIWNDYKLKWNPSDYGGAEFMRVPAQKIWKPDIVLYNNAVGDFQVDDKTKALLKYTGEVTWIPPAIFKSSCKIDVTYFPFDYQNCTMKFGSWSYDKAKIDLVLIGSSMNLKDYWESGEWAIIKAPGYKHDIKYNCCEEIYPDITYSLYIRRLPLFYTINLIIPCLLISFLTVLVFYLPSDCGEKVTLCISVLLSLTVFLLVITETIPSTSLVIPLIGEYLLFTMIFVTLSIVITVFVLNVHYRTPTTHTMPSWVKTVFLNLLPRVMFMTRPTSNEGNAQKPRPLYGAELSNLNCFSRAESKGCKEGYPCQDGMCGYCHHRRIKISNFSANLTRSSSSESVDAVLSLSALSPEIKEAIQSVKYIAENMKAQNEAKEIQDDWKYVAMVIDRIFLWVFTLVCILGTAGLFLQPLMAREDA

With `CC[C@H]1OC(=O)[C@H](C)C(=O)[C@H](C)[C@@H](O[C@@H]2O[C@H](C)C[C@H](N(C)C)[C@H]2O)[C@](C)(OCC=Cc2cnc3ccccc3c2)C[C@@H](C)C(=O)[C@H](C)[C@H]2NC(=O)O[C@@]21C` [CETHROMYCIN] the fraction unbound [1] was < 0.04.

For `CC[C@H]1OC(=O)[C@H](C)[C@@H](O[C@H]2C[C@@](C)(OC)[C@@H](O)[C@H](C)O2)[C@H](C)[C@@H](O[C@@H]2O[C@H](C)C[C@H](N(C)C)[C@H]2O)[C@](C)(O)C[C@@H](C)C(=O)[C@H](C)[C@@H](O)[C@]1(C)O` [ERYTHROMYCIN], the MIC [2] was 0.5 to 2 mg/L (≈ 0.681 to 2.73 µM).

`CC[C@H]1OC(=O)[C@H](C)[C@@H](O[C@H]2C[C@@](C)(OC)[C@@H](O)[C@H](C)O2)[C@H](C)[C@@H](O[C@@H]2O[C@H](C)C[C@H](N(C)C)[C@H]2O)[C@](C)(OC)C[C@@H](C)C(=O)[C@H](C)[C@@H](O)[C@]1(C)O` [CLARITHROMYCIN] showed a Cmax [3] of 2.5 µg/mL.

For `CC[C@H]1OC(=O)[C@H](C)C(=O)[C@H](C)[C@@H](O[C@@H]2O[C@H](C)C[C@H](N(C)C)[C@H]2O)[C@](C)(OC)C[C@@H](C)C(=O)[C@H](C)[C@H]2N(CCCCn3cnc(-c4cccnc4)c3)C(=O)O[C@]12C` [TELITHROMYCIN], the MIC [4] was 0.25 mg/L (≈ 0.308 µM), the MIC [5] was 0.06 mg/L (≈ 0.0739 µM) and the IC50 [6] was 3.5 µM. The EC50 [7] was 132 µM.

For `CC[C@H]1OC(=O)[C@H](C)[C@@H](O[C@H]2C[C@@](C)(OC)[C@@H](O)[C@H](C)O2)[C@H](C)[C@@H](O[C@@H]2O[C@H](C)C[C@H](N(C)C)[C@H]2O)[C@](C)(O)C[C@@H](C)CN(C)[C@H](C)[C@@H](O)[C@]1(C)O` [AZITHROMYCIN], the MIC [2] was 0.25 mg/L (≈ 0.334 µM), the half-life [8] was 48 to 96 h and the Cmax [9] was 350 to 450 µg/mL.
